For three molecules, mass density and Normal melting temperature results are on record in the NIST ThermoML archive (doi:10.1016/j.tca.2010.03.027).

Numbers after ± are expanded uncertainties.

For series [1] the following is noted: Crystal; for Normal melting temperature: DTA.
Series [2] is described as follows: xn = mol fraction of the nth substance listed. As to conditions: 293 K, 101 kPa, Crystal, X-ray diffraction.

For the molecule `[Br-].[Br-].[Ca+2]` [calcium bromide], the mass density (commonly the mass of a sample divided by its volume) in series [1] (293 K, 101.3 kPa, X-ray diffraction) came to 5060 ± 2 kg/m3. Besides, the Normal melting temperature in series [1] turned out to be 738 ± 1 °C.

As for `[Ca+2].[Cl-].[Cl-]` [calcium chloride], the Normal melting temperature in series [1] turned out to be 770 ± 1 °C.

Regarding `[Br-].[Br-].[Ca+2]` [calcium bromide] + [Ca+2].[Cl-].[Cl-], the mass density in series [2] (x1 = 0.15) is 3536 ± 2 kg/m3; in series [2] (x1 = 0.3), 3836 ± 2 kg/m3; in series [2] (x1 = 0.45), 4112 ± 2 kg/m3; in series [2] (x1 = 0.6), 4371 ± 2 kg/m3; in series [2] (x1 = 0.75), 4628 ± 2 kg/m3; in series [2] (x1 = 0.9), 4861 ± 2 kg/m3. Besides, the mass density in series [2] (x1 = 1) is given as 5060 ± 2 kg/m3.
